{
  "source": "patent US6599541B1",
  "about": "“Composition for treatment of drug resistant bacterial infections and a method of treating drug resistant bacterial infections” (priority 1999, dated 2003)",
  "key": {"Staphylococcus aureus [1]": {"tested_on": "Staphylococcus aureus", "assay": "Broth tube test of NE with antibiotic at break point, percentage of killing", "type": "cell-based", "settings": "Example 12 strain; antibiotic with NE, uniform for all the concentrations of NE", "experimental": "Since all the study isolates are resistant to the concerned antibiotics, each antibiotic is taken at its breakpoint concentration, (the highest serum concentration of that particular antibiotic reached after the maximum therapeutic dose in-vivo). The break points for various antibiotics are as follows:\nPreparation of Neem Extract: Stock solution of neem extract (1 mg/ml) was prepared, filtered and autoclaved. It was used in 4 concentrations—1000 μg/ml; 500 μg/ml; 250 μg/ml; 125 μg/ml.\nA set of four tubes with variable concentrations of the extract is prepared and to each of these tubes, the break point concentration of antibiotics is added. Now, these sets are inoculated with the study isolate in the same manner as per the broth dilution procedure. A set of six controls is inoculated with each isolate—in parallel with the main experiment.\n2. Only antibiotic solution\n3. Medium and antibiotic solution with inoculum\n5. Only Neem extract at 250 μg/ml\n6. Medium with Neem Extract and inoculum\nReading the test All the tests and control tubes are observed for visible turbidity of growth first. Since all the study isolates were earlier confirmed to be resistant to the antibiotics, the bacterial growth is expected at the breakpoint concentration of the antibiotic. Any reduction in the turbidity as compared to the control tube no. 3 is noted as a possible additive or synergistic effect of the neem extract with the antibiotic. In absence of such effect, the tubes may show growth matching with the control no. 4.\nIn case of a positive result, further sub-culturing was taken up, on solid media for colony counts with a calibrated loop. The colony counts could be noted by a semi quantitative method as 101 to 10^5 CFU/ml (Colony forming units). This is finally expressed as the percentage of killing as compared to the colony count obtained with control no. 4. Usually control tubes no. 3, 4 and 6 had similar colony counts."}, "Klebsiella pneumoniae": {"tested_on": "Klebsiella pneumoniae", "assay": "Agar Dilution Method of Sensitivity testing, NE alone and NE + antibiotic", "type": "cell-based", "settings": "41 resistant K. pneumoniae strains, 48 hours", "experimental": "(§1) Two kinds of investigations were carried-out using these bacterial isolates—using an Agar Dilution Method of Sensitivity testing.\n(§2) i) To ascertain whether, NE can work as an antibacterial substance on its own. For this purpose, a stock-solution of NE was prepared and was sterilized as described in the preliminary experiments.\n(§3) ii) This stock-solution was dispensed into the culture medium (Mueller Hinton Agar) so as to provide while; the medium was in liquid form. Four different concentrations of NE, viz.\n(§4) iii) This medium was poured into petri dishes and allowed to solidify. Resistant cultures were inoculated on to these plates and after incubation for 48 hours, the growth patterns were assessed.\n(§5) iv) The experiments were run in triplicate, for each concentration—as per standard practices of microbiological testing procedures.\n(§6) i) The culture medium (Mueller Hinton Agar) was melted and distributed into a number of test tubes.\n(§7) ii) The stock solution of NE was dispensed into these test tubes in four different concentrations viz.\n(§8) iii) In the same medium, one of the antibiotics under investigation was also added so as to provide a variable concentration (at break-even point concentration) as described below:\n(§9) iv) The culture medium containing NE extract+the antibiotic were poured into petri dishes and allowed to solidify.\n(§10) v) The resistant bacterial strains were inoculated onto these plates, incubated for 48 hours and the growth patterns were studied on each plate.\nUnder the same series of investigations, sensitization effect of NE was evaluated on resistant isolates of Klebsiella pneumoniae."}, "Mixed Infections": {"tested_on": "Mixed Infections", "assay": "Clinical study of NE tablets + antibiotic in non-responding infections"}, "Proteus mirabilis": {"tested_on": "Proteus mirabilis", "assay": "Agar Dilution Method of Sensitivity testing, NE + antibiotic", "type": "cell-based", "settings": "resistant Proteus mirabilis strains, 48 hours", "experimental": "as §1, §6, §7, §8, §9, §10\nThe sensitization effect of NE was also examined on Proteus mirabilis strains resistant to Penicillin derivatives and quinolone derivative antibiotics."}, "Staphylococcus aureus [2]": {"tested_on": "Staphylococcus aureus", "assay": "Agar Dilution Method of Sensitivity testing, NE alone and NE + antibiotic", "type": "cell-based", "settings": "resistant S. aureus cultures, 48 hours", "experimental": "as §1, §2, §3, §4, §5, §6, §7, §8, §9, §10\nThese cultures were obtained various clinical samples, such as sputum, non-healing infected wounds, throat swabs etc."}, "Escherichia coli": {"tested_on": "Escherichia coli", "assay": "Agar Dilution Method of Sensitivity testing, NE alone and NE + antibiotic", "type": "cell-based", "settings": "37 resistant E. coli strains, 48 hours", "experimental": "as §1, §2, §3, §4, §5, §6, §7, §8, §9, §10"}, "[3]": {"tested_on": "respiratory/surgical infections by bacteria resistant to the antibiotic", "assay": "Clinical study of NE tablets + antibiotic in non-responding infections, all cases", "settings": "NE tablets 100 mg twice a day + that antibiotic, 1-3 weeks"}, "Staphylococcus aureus [4]": {"tested_on": "Staphylococcus aureus", "assay": "Broth Macro Dilution Test, MIC and MBC", "type": "cell-based", "settings": "Example 12: strain from non-healing burn wound swab culture, antibiotic alone", "experimental": "This was done by estimation of the Minimum Inhibitory Concentration (MIC) and Minimum Bactericidal Concentration (MBC) on the selected isolates by a Broth Macro Dilution Test.\nCation Supplemented Mueller Hinton Broth was used as medium for all organisms excepting for β haemolytic streptococci for which, Todd Hewit's Broth was used as medium.\nThe following concentrations of antibiotics were tested to determine MIC and MBC.\nA minimum inhibitory concentration is the lowest level of antibiotic needed to cause an inhibition to bacterial growth in culture medium whereas, the minimum bactericidal concentration is the lowest concentration of antibiotic to achieve a 100% killing of bacteria. Thus, these two values are the practical indices of intensity of bacterial resistance to a given antibiotic. On the other hand, a break-even point of any antibiotic indicates the attainable blood levels after an administration of full dose, in human/animal body. Thus, this point indicates the practical dosage of administering any given antibiotic effectively and beyond this point, even if an antibiotic is found to act effectively in experimental situation—such dose cannot be administered in a clinical situation."}, "Staphylococcus aureus [5]": {"tested_on": "Staphylococcus aureus", "assay": "Clinical study of NE tablets + antibiotic in non-responding infections", "settings": "NE tablets + antibiotic to which resistant"}, "[6]": {"settings": "antibiotic at break-even point + NE 125 μg/mL"}, "[7]": {"settings": "antibiotic at break-even point + NE 250 μg/mL"}, "[8]": {"settings": "antibiotic at break-even point + NE 500 μg/mL"}, "[9]": {"settings": "antibiotic at break-even point + NE 1000 μg/mL"}, "[10]": {"settings": "Respiratory Infections, NE tablets + antibiotic to which resistant"}, "[11]": {"settings": "all mixed infections resistant to the antibiotic, NE tablets + antibiotic"}},
  "note": "Values joined by “and” are separate entries in the source; they are usually repeats but may differ in a detail not shown here. Equal entries are not always repeated.",
  "data": [
    {"smiles": "CC1(C)S[C@@H]2[C@H](NC(=O)[C@H](N)c3ccccc3)C(=O)N2[C@H]1C(=O)O", "note": "[Ampicillin]", "values": [
      {"measurement": "killing", "setting": "Staphylococcus aureus [1]", "result": "80% and 70%"},
      {"measurement": "Growth Patterns after addition of NE: no. of cultures +++ (growth)", "setting": "Klebsiella pneumoniae; [6]", "result": 17},
      {"measurement": "Growth Patterns after addition of NE: no. of cultures −−− (inhibition of growth)", "setting": "Klebsiella pneumoniae; [6]", "result": 24},
      {"measurement": "Growth Patterns after addition of NE: no. of cultures +++ (growth)", "setting": "Klebsiella pneumoniae; [7]", "result": 17},
      {"measurement": "Growth Patterns after addition of NE: no. of cultures −−− (inhibition of growth)", "setting": "Klebsiella pneumoniae; [7]", "result": 24},
      {"measurement": "Growth Patterns after addition of NE: no. of cultures +++ (growth)", "setting": "Klebsiella pneumoniae; [8]", "result": 17},
      {"measurement": "Growth Patterns after addition of NE: no. of cultures −−− (inhibition of growth)", "setting": "Klebsiella pneumoniae; [8]", "result": 24},
      {"measurement": "Growth Patterns after addition of NE: no. of cultures +++ (growth)", "setting": "Klebsiella pneumoniae; [9]", "result": 17},
      {"measurement": "Growth Patterns after addition of NE: no. of cultures −−− (inhibition of growth)", "setting": "Klebsiella pneumoniae; [9]", "result": 24},
      {"measurement": "No. of Cases Gr.-I", "setting": "Mixed Infections; [10]", "result": 1},
      {"measurement": "No. of Cases Gr.-II", "setting": "Mixed Infections; [10]", "result": 1},
      {"measurement": "No. of Cases Gr.-II", "setting": "Mixed Infections; Surgical Infections, NE tablets + antibiotic to which resistant", "result": 1},
      {"measurement": "No. of cases with effective sensitization / complete response", "setting": "Mixed Infections; [11]", "result": 2},
      {"measurement": "No. of cases with partial response", "setting": "Mixed Infections; [11]", "result": "one"},
      {"measurement": "Growth Patterns after addition of NE: no. of cultures +++ (growth)", "setting": "Proteus mirabilis; [6]", "result": 7},
      {"measurement": "Growth Patterns after addition of NE: no. of cultures −−− (inhibition of growth)", "setting": "Proteus mirabilis; [6]", "result": 3},
      {"measurement": "Growth Patterns after addition of NE: no. of cultures +++ (growth)", "setting": "Proteus mirabilis; [7]", "result": 7},
      {"measurement": "Growth Patterns after addition of NE: no. of cultures −−− (inhibition of growth)", "setting": "Proteus mirabilis; [7]", "result": 3},
      {"measurement": "Growth Patterns after addition of NE: no. of cultures +++ (growth)", "setting": "Proteus mirabilis; [8]", "result": 7},
      {"measurement": "Growth Patterns after addition of NE: no. of cultures −−− (inhibition of growth)", "setting": "Proteus mirabilis; [8]", "result": 3},
      {"measurement": "Growth Patterns after addition of NE: no. of cultures +++ (growth)", "setting": "Proteus mirabilis; [9]", "result": 7},
      {"measurement": "Growth Patterns after addition of NE: no. of cultures −−− (inhibition of growth)", "setting": "Proteus mirabilis; [9]", "result": 3},
      {"measurement": "Growth Patterns after addition of NE: no. of cultures +++ (growth)", "setting": "Staphylococcus aureus [2]; [6]", "result": 34},
      {"measurement": "Growth Patterns after addition of NE: no. of cultures −−− (inhibition of growth)", "setting": "Staphylococcus aureus [2]; [6]", "result": 68},
      {"measurement": "Growth Patterns after addition of NE: no. of cultures +++ (growth)", "setting": "Staphylococcus aureus [2]; [7]", "result": 29},
      {"measurement": "Growth Patterns after addition of NE: no. of cultures −−− (inhibition of growth)", "setting": "Staphylococcus aureus [2]; [7]", "result": 73},
      {"measurement": "Growth Patterns after addition of NE: no. of cultures +++ (growth)", "setting": "Staphylococcus aureus [2]; [8]", "result": 26},
      {"measurement": "Growth Patterns after addition of NE: no. of cultures −−− (inhibition of growth)", "setting": "Staphylococcus aureus [2]; [8]", "result": 76},
      {"measurement": "Growth Patterns after addition of NE: no. of cultures +++ (growth)", "setting": "Staphylococcus aureus [2]; [9]", "result": 20},
      {"measurement": "Growth Patterns after addition of NE: no. of cultures −−− (inhibition of growth)", "setting": "Staphylococcus aureus [2]; [9]", "result": 82},
      {"measurement": "Growth Patterns after addition of NE: no. of cultures +++ (growth)", "setting": "Escherichia coli; [6]", "result": 31},
      {"measurement": "Growth Patterns after addition of NE: no. of cultures −−− (inhibition of growth)", "setting": "Escherichia coli; [6]", "result": 6},
      {"measurement": "Growth Patterns after addition of NE: no. of cultures +++ (growth)", "setting": "Escherichia coli; [7]", "result": 31},
      {"measurement": "Growth Patterns after addition of NE: no. of cultures −−− (inhibition of growth)", "setting": "Escherichia coli; [7]", "result": 6},
      {"measurement": "Growth Patterns after addition of NE: no. of cultures +++ (growth)", "setting": "Escherichia coli; [8]", "result": 31},
      {"measurement": "Growth Patterns after addition of NE: no. of cultures −−− (inhibition of growth)", "setting": "Escherichia coli; [8]", "result": 6},
      {"measurement": "Growth Patterns after addition of NE: no. of cultures +++ (growth)", "setting": "Escherichia coli; [9]", "result": 31},
      {"measurement": "Growth Patterns after addition of NE: no. of cultures −−− (inhibition of growth)", "setting": "Escherichia coli; [9]", "result": 6},
      {"measurement": "No. of cases with Grade-II response (complete clinical and bacteriological)", "setting": "[3]", "result": 4},
      {"measurement": "MBC", "setting": "Staphylococcus aureus [4]", "result": "> 128", "unit": "µg/mL"},
      {"measurement": "MIC", "setting": "Staphylococcus aureus [4]", "result": 64, "unit": "µg/mL"}
    ]},
    {"smiles": "CC[C@H]1OC(=O)[C@H](C)[C@@H](O[C@H]2C[C@@](C)(OC)[C@@H](O)[C@H](C)O2)[C@H](C)[C@@H](O[C@@H]2O[C@H](C)C[C@H](N(C)C)[C@H]2O)[C@](C)(O)C[C@@H](C)/C(=N\\OCOCCOC)[C@H](C)[C@@H](O)[C@]1(C)O", "note": "[Roxythromycin]", "values": [
      {"measurement": "No. of Cases Gr.-I", "setting": "Staphylococcus aureus [5]; Respiratory Infections", "result": 1},
      {"measurement": "No. of Cases Gr-0", "setting": "Staphylococcus aureus [5]; Surgical Infections", "result": 1},
      {"measurement": "No. of Cases Gr.-II", "setting": "Staphylococcus aureus [5]; Surgical Infections", "result": 2},
      {"measurement": "No. of cases with Grade-II response (complete clinical and bacteriological)", "setting": "[3]", "result": 2}
    ]}
  ]
}
